Measured values as given in ChEMBL document CHEMBL1201862, “PubChem BioAssay data set” (2004).
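Five concentrations, 48 hours, 96-well plates. GI50 is the concentration that inhibits growth by half.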 Calls of active or inactive are those of the source. Cut-off read from the data, not from the text of the source: active = GI50 up to about 1.1 µM and inactive = higher.

How the values were obtained:
Assay in all cases: NCI tumour cell line growth inhibition, 48 h
SF-268 = system: SF-268
RXF 393 = system: RXF 393
RPMI-8226 = system: RPMI-8226
SN12C = system: SN12C
HOP-62 = system: HOP-62
U-251 = system: U-251
A498 = system: A498
DU-145 = system: DU-145
Hs-578T = system: Hs-578T
SK-MEL-5 = system: SK-MEL-5
HOP-92 = system: HOP-92
HCT-116 = system: HCT-116
SF-539 = system: SF-539
MDA-N = system: MDA-N
OVCAR-4 = system: OVCAR-4
OVCAR-5 = system: OVCAR-5
T47D = system: T47D
NCI-H522 = system: NCI-H522
KM12 = system: KM12
TK-10 = system: TK-10

SMILES | GI50 (SF-268) | GI50 (RXF 393) | GI50 (RPMI-8226) | GI50 (SN12C) | GI50 (HOP-62) | GI50 (U-251) | GI50 (A498) | GI50 (DU-145) | GI50 (Hs-578T) | GI50 (SK-MEL-5) | GI50 (HOP-92) | GI50 (HCT-116) | GI50 (SF-539) | GI50 (MDA-N) | GI50 (OVCAR-4) | GI50 (OVCAR-5) | GI50 (T47D) | GI50 (NCI-H522) | GI50 (KM12) | GI50 (TK-10)
O=[N+]([O-])c1cccc2nc3ccccc3c(NCCCCCNc3c4ccccc4nc4cccc([N+](=O)[O-])c34)c12 | 0.0313 µM (active) | 0.0302 µM (active) | 0.00828 µM (active) | 0.0151 µM (active) | 0.0579 µM (active) | 0.0368 µM (active) | 0.111 µM (active) | 0.0211 µM (active) | 0.0879 µM (active) | 0.0895 µM (active) | 0.0199 µM (active) | 0.0117 µM (active) | 0.0304 µM (active) | 0.0536 µM (active) | 0.153 µM (active) | 0.209 µM (active) | 0.179 µM (active) | 0.0859 µM (active) | 0.0461 µM (active) | 0.0242 µM (active)
Cn1cc2c(=O)n3ncn(-c4ccc(Br)cc4)c3nc2n1 | > 100 µM (inactive) | > 100 µM (inactive) | > 100 µM (inactive) | > 100 µM (inactive) | – | > 100 µM (inactive) | > 100 µM (inactive) | > 100 µM (inactive) | > 100 µM (inactive) | 87.9 µM (inactive) | > 100 µM (inactive) | > 100 µM (inactive) | > 100 µM (inactive) | > 100 µM (inactive) | > 100 µM (inactive) | > 100 µM (inactive) | > 100 µM (inactive) | > 100 µM (inactive) | > 100 µM (inactive) | > 100 µM (inactive)
COc1cc2c(cc1O)-c1c(OC)c(O)cc3c1C(C2)N(C)CC3 (configuration not stated) | > 100 µM (inactive) | > 100 µM (inactive) | > 100 µM (inactive) | > 100 µM (inactive) | – | > 100 µM (inactive) | > 100 µM (inactive) | > 100 µM (inactive) | > 100 µM (inactive) | > 100 µM (inactive) | > 100 µM (inactive) | > 100 µM (inactive) | > 100 µM (inactive) | > 100 µM (inactive) | > 100 µM (inactive) | > 100 µM (inactive) | > 100 µM (inactive) | > 100 µM (inactive) | > 100 µM (inactive) | > 100 µM (inactive)
C1=N\CCNCCNCC/N=C\c2ccc(cc2)OCc2cccc(n2)COc2ccc/1cc2 | 83.6 µM (inactive) | > 100 µM (inactive) | 53.6 µM (inactive) | > 100 µM (inactive) | > 100 µM (inactive) | > 100 µM (inactive) | > 100 µM (inactive) | > 100 µM (inactive) | 99.3 µM (inactive) | 51.4 µM (inactive) | > 100 µM (inactive) | > 100 µM (inactive) | > 100 µM (inactive) | > 100 µM (inactive) | 68.5 µM (inactive) | > 100 µM (inactive) | 53.3 µM (inactive) | – | 33.2 µM (inactive) | –
C(=N\NC1=NCCN1)/c1ccc(-c2cn3cc(/C=N/NC4=NCCN4)ccc3n2)cc1 | 9.79 µM (inactive) | > 55.6 µM (inactive) | 16.6 µM (inactive) | > 36.9 µM (inactive) | – | 15.5 µM (inactive) | 40.3 µM (inactive) | 16.6 µM (inactive) | > 87.3 µM (inactive) | > 100 µM (inactive) | 18.8 µM (inactive) | 10.4 µM (inactive) | > 100 µM (inactive) | > 49 µM (inactive) | 31 µM (inactive) | 64.3 µM (inactive) | > 100 µM (inactive) | 10.9 µM (inactive) | > 44 µM (inactive) | 26.6 µM (inactive)
CC(=O)N1N(c2ccc([N+](=O)[O-])cc2)C(=O)C1(C)C | 29.4 µM (inactive) | 18 µM (inactive) | – | 16.5 µM (inactive) | 19.3 µM (inactive) | 21.7 µM (inactive) | 37.9 µM (inactive) | 35.6 µM (inactive) | 33.5 µM (inactive) | 16.9 µM (inactive) | – | – | 20.9 µM (inactive) | 30.5 µM (inactive) | 19.2 µM (inactive) | 23.3 µM (inactive) | 39.3 µM (inactive) | 12.1 µM (inactive) | 16.7 µM (inactive) | 17.1 µM (inactive)
FC(F)(F)c1ccc2nc(Sc3ccccn3)cnc2c1 | 49.2 µM (inactive) | 19.1 µM (inactive) | – | 35.5 µM (inactive) | 35.3 µM (inactive) | 18.8 µM (inactive) | 19.7 µM (inactive) | 46.6 µM (inactive) | 54.7 µM (inactive) | 20.7 µM (inactive) | 89.1 µM (inactive) | 44.3 µM (inactive) | 16.7 µM (inactive) | 69.2 µM (inactive) | 79.8 µM (inactive) | > 100 µM (inactive) | 28 µM (inactive) | 21.7 µM (inactive) | 88.7 µM (inactive) | 31 µM (inactive)
COC(=O)/C=C\C(C#N)(C#N)/N=C/c1sccc1C | 12.3 µM (inactive) | 2 µM (inactive) | 5.04 µM (inactive) | 8.59 µM (inactive) | 14.7 µM (inactive) | 10 µM (inactive) | 14.8 µM (inactive) | 7.53 µM (inactive) | 7.78 µM (inactive) | 1.55 µM (inactive) | 1.91 µM (inactive) | 2.43 µM (inactive) | – | 3.59 µM (inactive) | 4.53 µM (inactive) | 5.26 µM (inactive) | 2.62 µM (inactive) | 0.268 µM (active) | 16.2 µM (inactive) | 1.86 µM (inactive)
COC(=O)C1(C(=O)OC)CC2=C(S(=O)(=O)c3ccccc3)C[C@H](S(=O)(=O)c3ccccc3)[C@H]2C1 | > 100 µM (inactive) | 13.8 µM (inactive) | 11.7 µM (inactive) | > 100 µM (inactive) | 78.9 µM (inactive) | > 100 µM (inactive) | > 100 µM (inactive) | > 100 µM (inactive) | > 100 µM (inactive) | 82.8 µM (inactive) | 19.6 µM (inactive) | 70.5 µM (inactive) | – | 39.4 µM (inactive) | > 100 µM (inactive) | > 100 µM (inactive) | 30.3 µM (inactive) | 33 µM (inactive) | 91.8 µM (inactive) | 52.4 µM (inactive)
COC(=O)/C(=N/NC(N)=O)C(C(=O)C(=O)Nc1ccc(C)cc1)c1nc2ccc(C(=O)c3ccccc3)cc2nc1O (configuration not stated) | > 100 µM (inactive) | 61.9 µM (inactive) | – | > 100 µM (inactive) | > 100 µM (inactive) | > 100 µM (inactive) | 18.9 µM (inactive) | > 100 µM (inactive) | 67 µM (inactive) | > 100 µM (inactive) | 30.3 µM (inactive) | > 100 µM (inactive) | 85.1 µM (inactive) | 64.1 µM (inactive) | > 100 µM (inactive) | > 100 µM (inactive) | 41.9 µM (inactive) | 50.5 µM (inactive) | 66.7 µM (inactive) | > 100 µM (inactive)
CCOC(=O)C(C(=O)OCC)=C1SC(=N\c2ccccc2)/C(=N/c2ccccc2)N1c1ccccc1 | 48.3 µM (inactive) | 28.2 µM (inactive) | > 100 µM (inactive) | > 100 µM (inactive) | 34.2 µM (inactive) | > 100 µM (inactive) | > 100 µM (inactive) | > 100 µM (inactive) | 90.8 µM (inactive) | 52.1 µM (inactive) | 54 µM (inactive) | > 100 µM (inactive) | > 100 µM (inactive) | > 100 µM (inactive) | – | > 100 µM (inactive) | > 100 µM (inactive) | 76.6 µM (inactive) | > 100 µM (inactive) | –
Cc1cc(N(C)C)c2ccccc2[n+]1CCCCCCCCCC[n+]1c(C)cc(N(C)C)c2ccccc21.[O-][Cl+3]([O-])([O-])[O-].[O-][Cl+3]([O-])([O-])[O-] | 0.731 µM (active) | 5.27 µM (inactive) | 0.128 µM (active) | 0.251 µM (active) | – | 0.124 µM (active) | 2.07 µM (inactive) | 1.58 µM (inactive) | 1.52 µM (inactive) | 0.165 µM (active) | 1.64 µM (inactive) | 0.743 µM (active) | 0.991 µM (active) | 0.485 µM (active) | 1.63 µM (inactive) | 3.3 µM (inactive) | 0.428 µM (active) | 6.1 µM (inactive) | 0.282 µM (active) | 3.29 µM (inactive)
O=c1[nH]nc(Cc2ccc([N+](=O)[O-])cc2)n1CCO | > 100 µM (inactive) | – | > 100 µM (inactive) | > 100 µM (inactive) | – | > 100 µM (inactive) | > 100 µM (inactive) | > 100 µM (inactive) | > 100 µM (inactive) | > 100 µM (inactive) | > 100 µM (inactive) | > 100 µM (inactive) | > 100 µM (inactive) | > 100 µM (inactive) | > 100 µM (inactive) | > 100 µM (inactive) | > 100 µM (inactive) | > 100 µM (inactive) | > 100 µM (inactive) | > 100 µM (inactive)
c1ccc2c(c1)Nc1c3ccccc3nc3cccc-2c13 | 1.49 µM (inactive) | 1.51 µM (inactive) | 0.587 µM (active) | 0.979 µM (active) | 1.02 µM (active) | 0.998 µM (active) | 2.51 µM (inactive) | 1.48 µM (inactive) | 1.73 µM (inactive) | 1.42 µM (inactive) | – | 0.499 µM (active) | 1.6 µM (inactive) | 1.17 µM (inactive) | 1.15 µM (inactive) | 1.43 µM (inactive) | 2.06 µM (inactive) | 1.23 µM (inactive) | 1.12 µM (active) | 1.73 µM (inactive)
